Source: publication PMC3769177 (Bioorganic & medicinal chemistry letters, 2013)

Test system: RD (embryonal) rhabdomyosarcoma cell line
Experiment: CellTiter-Glo Luminescent Cell Viability Assay, RD cells
Assay type: cell-based
Settings: 48 hours

CN1CCN(CCOc2cc(OC3CCOCC3)c3c(Nc4c(Cl)ccc5c4OCO5)ncnc3c2)CC1 [Saracatinib]
IC50[RD], inhibition of cell survival: did not reach the IC50
